Conditions: Gas, Vibrating wire viscometry

[He] [helium]
Conditions | viscosity [mPa·s]
296.26 K, 100.3 kPa | 0.01964
296.26 K, 332.1 kPa | 0.01983
296.26 K, 500.3 kPa | 0.01979
296.26 K, 716 kPa | 0.01982
322.56 K, 110.1 kPa | 0.02084
322.56 K, 306.5 kPa | 0.02096
322.56 K, 521.2 kPa | 0.02101
322.56 K, 723 kPa | 0.021
373.12 K, 111.6 kPa | 0.02307
373.12 K, 307.1 kPa | 0.02314
373.12 K, 504.2 kPa | 0.02318
373.12 K, 698.5 kPa | 0.02322
472.08 K, 111.5 kPa | 0.02712
472.08 K, 313.7 kPa | 0.02727
472.08 K, 504.9 kPa | 0.02725
472.08 K, 717.7 kPa | 0.02732
572.96 K, 111.1 kPa | 0.03107
572.96 K, 309.7 kPa | 0.03119
572.96 K, 514.3 kPa | 0.03119
572.96 K, 721.7 kPa | 0.03123

[HH] [hydrogen]
Conditions | viscosity [mPa·s]
296.26 K, 102.8 kPa | 0.0089
296.26 K, 305.3 kPa | 0.00897
296.26 K, 501 kPa | 0.009
296.26 K, 700.6 kPa | 0.00902
322.56 K, 111 kPa | 0.00941
322.56 K, 302.4 kPa | 0.00946
322.56 K, 502 kPa | 0.00949
322.56 K, 698 kPa | 0.00951
373.12 K, 111.6 kPa | 0.01041
373.12 K, 301.2 kPa | 0.01047
373.12 K, 503.1 kPa | 0.01048
373.12 K, 701.4 kPa | 0.0105
472.13 K, 111.4 kPa | 0.01209
472.13 K, 298.9 kPa | 0.01214
472.13 K, 500.1 kPa | 0.01215
472.13 K, 701.1 kPa | 0.01216
573.48 K, 98.9 kPa | 0.01416
573.48 K, 298.2 kPa | 0.0142
573.48 K, 503 kPa | 0.01427
573.48 K, 701.6 kPa | 0.01425

N#N [nitrogen]
Conditions | viscosity [mPa·s]
296.26 K, 99.9 kPa | 0.01766
296.26 K, 312.6 kPa | 0.01773
297.05 K, 500.9 kPa | 0.01783
297.05 K, 700.9 kPa | 0.01789
322.56 K, 109.8 kPa | 0.01884
322.56 K, 307.3 kPa | 0.01892
322.56 K, 500.7 kPa | 0.01899
322.56 K, 701.2 kPa | 0.01904
373.12 K, 111.2 kPa | 0.02104
373.12 K, 300.6 kPa | 0.02109
373.12 K, 503.2 kPa | 0.02119
373.12 K, 694.5 kPa | 0.02121
472.1 K, 110.2 kPa | 0.02498
472.1 K, 309.7 kPa | 0.025
472.1 K, 505.8 kPa | 0.02509
472.1 K, 703.4 kPa | 0.02513
572.98 K, 111.7 kPa | 0.02864
572.98 K, 316.1 kPa | 0.02867
572.98 K, 502 kPa | 0.02871
572.98 K, 703.4 kPa | 0.02868

Reference: the NIST ThermoML archive (doi:10.1016/j.jct.2015.04.028)
